The text below walks through data of ChEMBL document CHEMBL5385913, “First-in-Class Dual EZH2-HSP90 Inhibitor Eliciting Striking Antiglioblastoma Activity In Vitro and In Vivo” (J Med Chem, 2024).

The test system of one series is GBM. As to the kind of experiment: Antitumor activity against TMZ-resistant patient-derived human GBM cells xenografted in NOD.CB17-Prkdcscid/NCrCrl mouse assessed as reduction in tumor growth at 5 to 15 mg/kg, ip treated twice per week in presence of Tazemetostat. It counts as functional, organism-based. The note with it: dose 5-15 mg/kg.
Series [1] can be described thus: Toxicity in NOD.CB17-Prkdcscid/NCrCrl mouse xenografted with TMZ-resistant patient-derived human GBM cells at 5 to 15 mg/kg, ip treated twice per week in presence of Tazemetostat. It counts as organism-based. The note with it: in vivo, dose 5-15 mg/kg. In general terms: Xenograft models place foreign cells or tissue in a host animal.

Active and inactive are the calls of the source. The calls are words filed in the database; no cut-off is given here.

With `CC(C)c1cc(-c2n[nH]c(=O)n2-c2ccc3c(ccn3C)c2)c(O)cc1O` [GANETESPIB], in the series on GBM, the result was Active. Also, the Activity entry in series [1] is on record as “Toxic”.
